Here are results for 26 molecules from patent publication US20220144838A1, “Compounds as Inhibitors of Macrophage Migration Inhibitory Factor” (NANJING IMMUNOPHAGE BIOTECH CO., LTD., priority 2019, published 2022).

Test [1] has as its target T1, biotinylated human MIF / MIF receptor ectodomain (sCD74) (Homo sapiens, UniProt P14174).
T1 construct: made in house
T1 sequence (P14174 2-115 limits assumed): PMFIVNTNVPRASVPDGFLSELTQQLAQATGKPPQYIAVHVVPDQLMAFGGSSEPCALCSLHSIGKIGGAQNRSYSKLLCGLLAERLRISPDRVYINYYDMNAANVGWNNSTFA
In words: MIF-CD74 binding assay. The conditions noted are these: FIGS. 9-12; read-out: pIC50 MIF-CD74 binding (converted). The protocol:
The assay measures the ability of a compound to inhibit the binding of MIF with its receptor CD74 in vitro. 96-well plates were coated with recombinant MIF receptor ectodomain (sCD74=CD7473-232), washed 4 times, and blocked with Superblock (Pierce Biotechnology) at 4° C. overnight. Test compounds, which were used at a top final assay concentration of 33.3 μM, diluted in assay medium with 1:3 dilutions to produce 10 point concentration responses, were pre-incubated with biotinylated human MIF (2 ng/μl) (Roche Applied Sciences) prepared recombinantly for 30 minutes at room temperature. The mixtures then were added to wells for overnight incubation at 4° C. The wells were washed 4 times and strepavidin-conjugated alkaline phosphatase (R&D Systems) was added for one hour incubation at room temperature. After additional washes, 60 μl/well of p-nitrophenyl phosphate (Sigma) substrate was added. Absorbance at 405 nm was plotted as percent A405 relative to wells containing biotinylated human MIF alone. Each plot represented at least three independently performed assays, and each data point depicts a SEM≤10%. Each test compound was analyzed over 10-12 concentrations, and over a ˜500-fold concentration range.
Selected examples were tested in the MIF-CD74 binding assay. The data mentioned below represents a mean pIC50 value of multiple test results. It is understood that the data illustrated below may have reasonable variation depending on the specific conditions and procedures used by the person conducting the testing.

The next test concerns the target T2, MIF (Homo sapiens, UniProt P14174).
T2 sequence (P14174 2-115 limits assumed): T1 sequence (P14174 2-115 limits assumed)
Briefly: MIF tautomerase assay using pHPP as substrate. Type of test: biochemical. The following applies: mean of multiple test results. The essentials:
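Mean pIC50 derived from initial rates (absorbance progress-curve slopes) of MIF-catalyzed ketonic-to-enolic pHPP conversion, read as enol–borate complex. Reactions contained 1.5 mM substrate and 3 nM enzyme (final), 200 mM boric acid stock buffer, BSA and CHAPS, pH 6.0.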

The mark [2] stands for this setting: inhibition of the MIF enzyme in vitro, read-out: Tautomerase Inhibition pIC50 (converted).

Where two headings read alike, the source gives them in different places. A value given as a limit tells only on which side of the number the result lay.

On to `COc1ccc2c(cnn2-c2nc(N3CCN(c4ccc(O)cc4)CC3)nc3c2ncn3CC(=O)O)c1` [Example 51, 2-(2-(4-(4-hydroxyphenyl)piperazin-1-yl)-6-(5-methoxy-1H-indazol-1-yl)-9H-purin-9-yl)acetic acid], for which the IC50 was 8910 nM in test [1]; not above 100 nM on MIF (FIGS. 1-5, read-out: pIC50 MIF tautomerase activity (converted)); 10 to 97.7 nM on MIF (setting [2]).

Take `COc1ncccc1-n1cnc2c(C)nc(N3CCN(c4ccc(O)cc4)CC3)nc21` [Example 62, 4-(4-(9-(2-methoxypyridin-3-yl)-6-methyl-9H-purin-2-yl)piperazin-1-yl)phenol]: the IC50 in test [1] was 26300 nM; at MIF (setting [2]) it was 10 to 97.7 nM.

Turning to `Nc1nc(N2CCN(c3ccc(O)cc3)CC2)nc2c1ncn2-c1cccnc1` [Example 115, 4-(4-(6-amino-9-(pyridin-3-yl)-9H-purin-2-yl)piperazin-1-yl)phenol], the results for the IC50 (in test [1]; on MIF (setting [2])) were 2610 nM and 100 to 977 nM, respectively.

On to `O=C(O)CCn1cnc2c(-n3ncc4ccccc43)nc(N3CCN(c4ccc(O)cc4)CC3)nc21` [Example 148, 4-(2-(4-(4-hydroxyphenyl)piperazin-1-yl)-6-(1H-indazol-1-yl)-9H-purin-9-yl)propanoic acid], for which the IC50 in test [1] was 4900 nM; on MIF (setting [2]) it was 10 to 97.7 nM.

Consider `Nc1nc(N2CCC(O)(c3ccc(O)cc3)CC2)nc2c1ncn2-c1cccnc1` [Example 208, 1-(6-amino-9-(pyridin-3-yl)-9H-purin-2-yl)-4-(4-hydroxyphenyl)piperidin-4-ol], for which, at MIF (setting [2]), the IC50 was 100 to 977 nM.

For `Nc1nc(N2CCC(O)(c3ccc(F)cc3)CC2)nc2c1ncn2-c1cccnc1` [Example 209, 1-(6-amino-9-(pyridin-3-yl)-9H-purin-2-yl)-4-(4-fluorophenyl)piperidin-4-ol], the IC50 on MIF (setting [2]) is 1000 to 9770 nM.

Regarding `Nc1nc(N2CCC(O)(c3ccc(F)cc3)CC2)nc2c1ncn2-c1ccncc1` [Example 210, 1-(6-amino-9-(pyridin-4-yl)-9H-purin-2-yl)-4-(4-fluorophenyl)piperidin-4-ol], the IC50 at MIF (setting [2]) is 1000 to 9770 nM.

For the molecule `Oc1ccc(C2(O)CCN(c3nc(N4CCCCC4)c4ncn(-c5ccncc5)c4n3)CC2)cc1` [Example 211, 1 4-(4-hydroxyphenyl)-1-(6-(piperidin-1-yl)-9-(pyridin-4-yl)-9H-purin-2-yl)piperidin-4-ol], on MIF (setting [2]), the IC50 was 1000 to 9770 nM.

In the case of `NC(=O)c1ccc(C2(O)CN(c3nc(N)c4ncn(-c5ccncc5)c4n3)C2)cc1` [Example 212, 4-(1-(6-amino-9-(pyridin-4-yl)-9H-purin-2-yl)-3-hydroxyazetidin-3-yl)benzamide], at MIF (setting [2]), the IC50 is 1000 to 9770 nM.

As to `Nc1nc(N2CC(O)(c3ccns3)C2)nc2c1ncn2-c1ccncc1` [Example 213, 1-(6-amino-9-(pyridin-4-yl)-9H-purin-2-yl)-3-(isothiazol-5-yl)azetidin-3-ol], the IC50 on MIF (setting [2]) was more than 10000 nM.

As for `Nc1nc(N2CC(O)(c3ccc(CO)cc3)C2)nc2c1ncn2-c1ccncc1` [Example 214, 1-(6-amino-9-(pyridin-4-yl)-9H-purin-2-yl)-3-(4-(hydroxymethyl)phenyl) azetidin-3-ol], the IC50 on MIF (setting [2]) is more than 10000 nM.

`Cc1nc(N2CCC(O)(c3ccc(O)cc3)CC2)nc2c1ncn2CC(=O)O` [Example 215, 2-(2-(4-hydroxy-4-(4-hydroxyphenyl)piperidin-1-yl)-6-methyl-9H-purin-9-yl)acetic acid]: the IC50 on MIF (setting [2]) was more than 10000 nM.

Regarding `O=C(O)Cn1cnc2c(-n3ncc4ccccc43)nc(N3CC(O)(c4ccc(O)cc4)C3)nc21` [Example 216, 2-(2-(3-hydroxy-3-(4-hydroxyphenyl)azetidin-1-yl)-6-(1H-indazol-1-yl)-9H-purin-9-yl)acetic acid], at MIF (setting [2]), the IC50 was 10 to 97.7 nM.

On to `O=C(O)CCCCn1cnc2c(-n3ncc4ccccc43)nc(N3CCC(O)(c4ccc(O)cc4)CC3)nc21` [Example 217, 5-(2-(4-hydroxy-4-(4-hydroxyphenyl)piperidin-1-yl)-6-(1H-indazol-1-yl)-9H-purin-9-yl)pentanoic acid], for which the IC50 at MIF (setting [2]) was 10 to 97.7 nM.

Consider `Oc1ccc(C2(O)CCN(c3nc(Nc4ccncc4)c4nc[nH]c4n3)CC2)cc1` [Example 219, 4-(4-hydroxyphenyl)-1-(6-(pyridin-4-ylamino)-9H-purin-2-yl)piperidin-4-ol], for which the IC50 at MIF (setting [2]) was 100 to 977 nM.

As for `CN(c1ccncc1)c1nc(N2CCC(O)(c3ccc(O)cc3)CC2)nc2[nH]cnc12` [Example 220, 4-(4-hydroxyphenyl)-1-(6-(methyl(pyridin-4-yl)amino)-9H-purin-2-yl)piperidin-4-ol], the IC50 on MIF (setting [2]) was more than 10000 nM.

Turning to `O=C(O)Cn1cnc2c(-n3ncc4ccccc43)nc(N3CC(O)(c4ccccc4)C3)nc21` [Example 221, 2-(2-(3-hydroxy-3-phenylazetidin-1-yl)-6-(1H-indazol-1-yl)-9H-purin-9-yl)acetic acid], the IC50 at MIF (setting [2]) is 100 to 977 nM.

Turning to `C#CCn1cnc2c(-n3ncc4ccccc43)nc(N3CCC(O)(c4ccc(O)cc4)CC3)nc21` [Example 222, 1-(6-(1H-indazol-1-yl)-9-(prop-2-yn-1-yl)-9H-purin-2-yl)-4-(4-hydroxyphenyl)piperidin-4-ol], the IC50 on MIF (setting [2]) is 100 to 977 nM.

As for `O=C(O)Cn1cnc2c(-n3ncc4ccccc43)nc(N3CCC(O)(c4ccc(F)cc4)CC3)nc21` [Example 223, 2-(2-(4-(4-fluorophenyl)-4-hydroxypiperidin-1-yl)-6-(1H-indazol-1-yl)-9H-purin-9-yl)acetic acid], the IC50 on MIF (setting [2]) was 100 to 977 nM.

Turning to `OCCn1cnc2c(-n3ncc4ccccc43)nc(N3CCC(O)(c4ccc(F)cc4)CC3)nc21` [Example 224, 4-(4-fluorophenyl)-1-(9-(2-hydroxyethyl)-6-(1H-indazol-1-yl)-9H-purin-2-yl)piperidin-4-ol], at MIF (setting [2]), the IC50 was 1000 to 9770 nM.

In the case of `OCCn1cnc2c(-n3ncc4ccccc43)nc(N3CC(O)(c4ccccc4)C3)nc21` [Example 225, 1-(9-(2-hydroxyethyl)-6-(1H-indazol-1-yl)-9H-purin-2-yl)-3-phenylazetidin-3-ol], the IC50 at MIF (setting [2]) is 1000 to 9770 nM.

Consider `Nc1nc(N2CCN(c3ccc(O)cc3)CC2)nc2c(-c3ccncc3)c[nH]c12` [Example 226, 4-(4-(4-amino-7-(pyridin-4-yl)-5H-pyrrolo[3,2-d]pyrimidin-2-yl)piperazin-1-yl)phenol], for which the IC50 at MIF (setting [2]) was more than 10000 nM.

As to `Nc1nc(N2CCCN(c3ccccc3)CC2)nc2c1ncn2-c1ccncc1` [Example 227, 2-(4-phenyl-1,4-diazepan-1-yl)-9-(pyridin-4-yl)-9H-purin-6-amine], on MIF (setting [2]), the IC50 is more than 10000 nM.

As to `Oc1ccc(N2CCN(c3nc(-n4ncc5ccccc54)c4ncn(C5CCOC5)c4n3)CC2)nc1` (stereo not shown) [Example 228, 6-(4-(6-(1H-indazol-1-yl)-9-(tetrahydrofuran-3-yl)-9H-purin-2-yl)piperazin-1-yl)pyridin-3-ol], the IC50 at MIF (setting [2]) was 100 to 977 nM.

Consider `Cc1nc(N2CCN(c3ccc(O)cc3)CC2)nc2c1ncn2-c1cccnc1` [Example 229, 4-(4-(6-methyl-9-(pyridin-3-yl)-9H-purin-2-yl)piperazin-1-yl)phenol], for which the IC50 at MIF (setting [2]) is 10 to 97.7 nM.

For the molecule `Nc1nc(N2CCN(c3ccc(O)cn3)CC2)nc2c1ccn2-c1ccncc1` [Example 230, 6-(4-(4-amino-7-(pyridin-4-yl)-7H-pyrrolo[2,3-d]pyrimidin-2-yl)piperazin-1-yl)pyridin-3-ol], the IC50 at MIF (setting [2]) is 1000 to 9770 nM.
